Laboratory results as given in PMC4723341, “Ribonuclease H/DNA Polymerase HIV-1 Reverse Transcriptase Dual Inhibitor: Mechanistic Studies on the Allosteric Mode of Action of Isatin-Based Compound RMNC6” (PLoS ONE, 2016).
Values joined by “and” are separate entries in the source; they are usually repeats but may differ in a detail not shown here. Identical values can stand only once.

Experiments:
[1] = molecular target: HIV-1 RT-associated RNase H activity, HIV-1 group O RT (Human immunodeficiency virus type 1 group O, UniProt Q79666); assay: RNase H activity assay, HIV-1 group O RT; format: biochemical; details: for IC50: Group O RT; for Fold increase in RNase H IC50 in comparison with wild-type HIV-1 group M subtype B RT: HIV-1 group O RT
Text: Recombinant HIV-1 group O RT was expressed and purified as previously described. It was obtained as a heterodimer composed of subunits of 66 and 51 kDa, with a polyhistidine tag at the C-terminus of p66. For this purpose, the RT p66 subunit encoded within a p66RTB expression vector was co-expressed with the HIV-1 protease in E. coli XL-1 Blue, and the obtained heterodimers were then purified by ionic exchange followed by chromatography on Ni2+-nitriloacetic acid agarose. The enzyme was quantified by active site titration before biochemical studies.
(§1) HIV RT-associated RNase H activity was measured as described in 100 μL reaction volume containing 50 mM Tris-HCl buffer pH 7.8, 6 mM MgCl2, 1 mM dithiothreitol (DTT), 80 mM KCl, 0.25 μM hybrid RNA/DNA 5'-[…]-Fluorescin-3' (HPLC, dry, QC: Mass Check) (available from Metabion) 5'-Dabcyl-[…]-3'(HPLC, dry, QC: Mass Check), increasing concentrations of inhibitors, whose dilution were made in water, and different amount of enzymes according to a linear range of dose-response curve: 20 ng of WT RT; 60 ng K103N RT; 37.5 ng V106A RT; 75 ng V108A RT; 5 ng Y181C RT; 50 ng Y188A RT; 30 ng Y188L RT; 100 ng E224A RT; 37.5 ng P225A RT; 20 ng P226A RT; 18 ng F227A RT; 30 ng L228A RT; 30 ng W229A RT; 10 ng M230A RT; 30 ng G231A RT; 62.5 ng N474A RT; 1 μg Y501A RT; 100 ng A502F RT; 37.5 ng A508V RT; 38 ng HIV-1 group O RT. The reaction mixture was incubated for 1 h at 37°C, stopped by addition of EDTA and products were measured with a multilabel counter plate reader Victor 3 (Perkin Elmer model 1420–051) equipped with filters for 490/528 nm (excitation/emission wavelength)

[2] = molecular target: T1, HIV-1 RT-associated RNase H activity, G231A RT (Human immunodeficiency virus type 1 group M subtype B, UniProt P04585, G818A); assay: RNase H activity assay, G231A RT; format: biochemical, HIV-1 group M subtype B
T1 construct: The 1:1 ration between the p66/p51 subunits was also verified; made in house; host or cells: E. coli M15
Experimental: (§2) HIV RT-associated RNase H activity was measured as described in 100 μL reaction volume containing 50 mM Tris-HCl buffer pH 7.8, 6 mM MgCl2, 1 mM dithiothreitol (DTT), 80 mM KCl, 0.25 μM hybrid RNA/DNA 5'-GAUCUGAGCCUGGGAGCU-Fluorescin-3' (HPLC, dry, QC: Mass Check) (available from Metabion) 5'-Dabcyl-AGCTCCCAGGCTCAGATC-3'(HPLC, dry, QC: Mass Check), increasing concentrations of inhibitors, whose dilution were made in water, and different amount of enzymes according to a linear range of dose-response curve: 20 ng of WT RT; 60 ng K103N RT; 37.5 ng V106A RT; 75 ng V108A RT; 5 ng Y181C RT; 50 ng Y188A RT; 30 ng Y188L RT; 100 ng E224A RT; 37.5 ng P225A RT; 20 ng P226A RT; 18 ng F227A RT; 30 ng L228A RT; 30 ng W229A RT; 10 ng M230A RT; 30 ng G231A RT; 62.5 ng N474A RT; 1 μg Y501A RT; 100 ng A502F RT; 37.5 ng A508V RT; 38 ng HIV-1 group O RT. The reaction mixture was incubated for 1 h at 37°C, stopped by addition of EDTA and products were measured with a multilabel counter plate reader Victor 3 (Perkin Elmer model 1420–051) equipped with filters for 490/528 nm (excitation/emission wavelength)

[3] = test system: HIV-1 RT-associated RNase H activity, G231A RT; assay: RNase H activity assay, G231A RT; format: biochemical, HIV-1 group M subtype B; details: G231A RT
Experimental: as §2

[4] = molecular target: T2, HIV-1 RT-associated RNase H activity, M230A RT (Human immunodeficiency virus type 1 group M subtype B, UniProt P04585, M817A); assay: RNase H activity assay, M230A RT; format: biochemical, HIV-1 group M subtype B
T2 construct: The 1:1 ration between the p66/p51 subunits was also verified; made in house; host or cells: E. coli M15
Experimental: as §2

[5] = test system: HIV-1 RT-associated RNase H activity, M230A RT; assay: RNase H activity assay, M230A RT; format: biochemical, HIV-1 group M subtype B; details: M230A RT
Experimental: as §2

[6] = molecular target: T3, HIV-1 RT-associated RNase H activity, Y501A RT (Human immunodeficiency virus type 1 group M subtype B, UniProt P04585, Y1088A); assay: biochemical; format: biochemical, HIV-1 group M subtype B
T3 construct: The 1:1 ration between the p66/p51 subunits was also verified; made in house; host or cells: E. coli M15
Experimental: as §1

[7] = molecular target: T4, HIV-1 RT-associated RNase H activity, N474A RT (Human immunodeficiency virus type 1 group M subtype B, UniProt P04585, N1061A); assay: biochemical; format: biochemical, HIV-1 group M subtype B
T4 construct: The 1:1 ration between the p66/p51 subunits was also verified; made in house; host or cells: E. coli M15
Experimental: as §1

[8] = test system: HIV-1 RT-associated RNase H activity, V108A RT; assay: RNase H activity assay, V108A RT; format: biochemical, HIV-1 group M subtype B; details: V108A RT
Experimental: as §2

[9] = molecular target: T5, HIV-1 RT-associated RNase H activity, wt RT (Human immunodeficiency virus type 1 group M subtype B, UniProt P04585); assay: biochemical; set-up: species or system HIV-1 group M subtype B
T5 construct: The 1:1 ration between the p66/p51 subunits was also verified; made in house; host or cells: E. coli M15
Experimental: as §2

[10] = molecular target: T6, HIV-1 RT-associated RDDP activity, wt RT (Human immunodeficiency virus type 1 group M subtype B, UniProt P04585); assay: biochemical; set-up: species or system HIV-1 group M subtype B
T6 construct: The 1:1 ration between the p66/p51 subunits was also verified; made in house; host or cells: E. coli M15

[11] = molecular target: T7, HIV-1 RT-associated RDDP activity, V108A RT (Human immunodeficiency virus type 1 group M subtype B, UniProt P04585, V695A); assay: biochemical; set-up: species or system HIV-1 group M subtype B
T7 construct: The 1:1 ration between the p66/p51 subunits was also verified; made in house; host or cells: E. coli M15

[12] = UV spectra in the absence and presence of magnesium (chelating potential); format: physicochemical; details: in the presence of 6 mM MgCl2
Text: Since the mode of action of previously identified dual RT inhibitors was not determined, we decided to investigate the mechanism of RT inhibition by RMNC6 in comparison with available RNase H inhibitors and NNRTIs. […] RNase H inhibitors such as vynologous ureas (VUs) are known to destabilize the RT heterodimer by binding to an allosteric pocket in the RNase H domain at the interface between p66 and p51 subunits.

| Structure (SMILES) | IC50 [1] [nM] | Fold increase in RNase H IC50 in comparison with wild-type HIV-1 group M subtype B RT [1] | IC50 [2] [nM] | Fold of increase of RNase H IC50 with respect to wt RT [3] | IC50 [4] [nM] | Fold of increase of RNase H IC50 with respect to wt RT [5] | IC50 [6] [nM] | Fold of increase of RNase H IC50 with respect to wt RT ([6]; Y501A RT) | IC50 [7] [nM] | Fold of increase of RNase H IC50 with respect to wt RT ([7]; N474A RT) | Fold of increase of RNase H IC50 with respect to wt RT [8] | IC50 [9] [nM] | IC50 [10] [nM] | IC50 [11] [nM] | Fold of increase of RDDP IC50 with respect to wt RT ([11]; V108A RT) | Shift of maximum of absorbance (UV spectra) [12] | Resistance of RNase H function ([6]; Y501A RT) | Resistance of RNase H function ([7]; N474A RT) |
| --- | --- | --- | --- | --- | --- | --- | --- | --- | --- | --- | --- | --- | --- | --- | --- | --- | --- | --- |
| CC(C)c1ccc(O)c(=O)c(O)c1 [BTP, β-thujaplicinol, reference compound] | 910 ± 10 | 5 to 6.5 | 250 ± 30 | 1.3 | 140 ± 40 | 0.7 | 70 ± 2 | 0.4 | 920 ± 10 | 4.8 | 0.9 | 190 ± 30 |  |  |  |  |  |  |
| N#Cc1ccc(-c2csc(NN=C3C(=O)Nc4ccccc43)n2)cc1 [RMNC6, (Z)-4-(2-(2-(2-oxoindolin-3-ylidene)hydrazinyl)thiazol-4-yl)benzonitrile] | 8500 ± 2600 | 6.5 and 5 to 6.5 | 1700 ± 400 | 1.3 | 500 ± 100 | 0.4 | > 100000 | > 77 | > 100000 | > 77 |  | 1300 ± 300 | 9800 ± 1400 | 33000 ± 5200 | 3.4 | did not shift | full resistance | full resistance |
